The test system of data set [1] is S. aureus SA-1199B (overexpresses the NorA efflux protein). As to the kind of experiment: MIC/MBC by broth microdilution, strain SA-1199B. It is filed as cell-based. As to conditions: Staphylococcus aureus; for MBC: read-out: Minimum Bactericidal Concentration (MBC); for MIC: read-out: Minimum Inhibitory Concentration (MIC). The procedure:
(§1) The effluxing strains were kindly provided by Professor Simon Gibbons (University of London, London, UK), and the MARSA strains were obtained from the culture collection of the Laboratory of Microorganism Genetics (Department of Molecular Biology, Federal University of Paraíba). All strains were maintained on blood agar base slants (BAB, Difco Laboratories Ltd., Brazil), and prior to use, the cells were grown overnight at 37 °C in brain heart infusion broth (BHI, Difco Laboratories Ltd., Detroit, MI, USA).
(§2) The stock solutions of the compounds were prepared in DMSO which at its highest final concentration after dilution in the broth (4%) caused no inhibition of bacterial growth. The minimum inhibitory concentrations (MICs) of the compounds were determined in BHI by microdilution assay using a suspension of ca. 10^5 cfu/mL and a drug concentration range of 256 to 0.5 μg/mL (two-fold serial dilutions). The MIC is defined as the lowest concentration at which no growth is observed. The dye resazurin was used for better visualization of the bacterial growth. […] The minimum bactericidal concentration (MBC) is defined as the lowest drug concentration that gives no growth on the agar.

Data set [2] has as its system S. aureus RN-4220 (plasmid pUL5054, MsrA macrolide efflux protein). Nature of the data set: MIC/MBC by broth microdilution, strain RN-4220. Format: cell-based. The conditions noted are these: Staphylococcus aureus; for MBC: read-out: Minimum Bactericidal Concentration (MBC); for MIC: read-out: Minimum Inhibitory Concentration (MIC). On the procedure: as §1, §2
On the technique in general: In broth dilution the organism is exposed to a series of concentrations in liquid medium.

The test system of the next data set is S. aureus 007 (MARSA). As to the kind of experiment: MIC/MBC by broth microdilution, clinical strain 007. As to conditions: Staphylococcus aureus; for MIC: read-out: Minimum Inhibitory Concentration (MIC); for MBC: read-out: Minimum Bactericidal Concentration (MBC). Format: cell-based. On the procedure:
as §1, §2

The test system of another data set is S. aureus 05H (MARSA). As to the kind of experiment: MIC/MBC by broth microdilution, clinical strain 05H. The conditions noted are these: for MBC / MIC: Staphylococcus aureus, 5 h; for MBC: read-out: Minimum Bactericidal Concentration (MBC). It is filed as cell-based, Staphylococcus aureus. On the procedure:
as §1, §2

Data set [3] concerns S. aureus IS-58 (TetK tetracycline efflux protein). Nature of the data set: MIC/MBC by broth microdilution, strain IS-58. It is filed as cell-based. As to conditions: Staphylococcus aureus; for MBC: read-out: Minimum Bactericidal Concentration (MBC); for MIC: read-out: Minimum Inhibitory Concentration (MIC). On the procedure: as §1, §2
The mark [4] stands for this setting: strain 007, first number of cell MIC-MBC.
The mark [5] stands for this setting: strain 007, second number of cell MIC-MBC.
The mark [6] stands for this setting: read-out: Minimum Inhibitory Concentration (MIC).

Converted amounts (≈) assume the structure as drawn. Read-outs that look alike come from different tables or passages of the source.

`CC(=O)N1N=C(c2ccc([N+](=O)[O-])cc2)OC1c1ccc([N+](=O)[O-])o1` (stereo not drawn) [Compound 5c, 1-(2-(5-Nitrofuran-2-yl)-5-(4-nitrophenyl)-1,3,4-oxadiazol-3(2H)-yl)ethanone] registered a melting point of 188 to 190 °C. In data set [1], the MBC was determined as 32 µg/mL (≈ 92.4 µM) and the MIC worked out at 32 µg/mL (≈ 92.4 µM). Also, the MBC in data set [2] was 32 µg/mL (≈ 92.4 µM). In addition, the MIC in the data set with S. aureus 007 (MARSA) (setting [4]) was found to be 16 µg/mL (≈ 46.2 µM). Further, in the data set with S. aureus 007 (MARSA) (setting [5]), the MBC came to 16 µg/mL (≈ 46.2 µM). Further, the MBC in the data set with S. aureus 05H (MARSA) was 8 µg/mL (≈ 23.1 µM). Further, the MIC in the data set with S. aureus 05H (MARSA) (setting [6]) was found to be 8 µg/mL (≈ 23.1 µM).
On to `O=C(NN=Cc1ccc([N+](=O)[O-])o1)c1ccc(Cl)cc1` [Compound 4d, 4-Chloro-N′-((5-nitrofuran-2-yl)methylene)benzohydrazide], for which the MBC in data set [1] was 16 µg/mL (≈ 54.5 µM); in data set [3] it was 16 µg/mL (≈ 54.5 µM); with S. aureus 007 (MARSA) (setting [5]), 8 µg/mL (≈ 27.2 µM); in the data set on S. aureus 05H (MARSA), 4 µg/mL (≈ 13.6 µM). For the same molecule, the MIC was 16 µg/mL (≈ 54.5 µM) in data set [1], 8 µg/mL (≈ 27.2 µM) with S. aureus 007 (MARSA) (setting [4]), 4 µg/mL (≈ 13.6 µM) against S. aureus 05H (MARSA) and 4 µg/mL (≈ 13.6 µM) in the data set on S. aureus 05H (MARSA) (setting [6]). Also, the “fold more potent than the standard chloramphenicol” value in the data set with S. aureus 05H (MARSA) (strain MARSA (05H)) turned out to be 16 fold.
Regarding `CC(=O)N1N=C(c2ccc(Cl)cc2)OC1c1ccc([N+](=O)[O-])o1` (stereo not drawn) [Compound 5d], the melting point fell in the range of 188 to 190 °C. Also, the MBC in data set [1] turned out to be 32 µg/mL (≈ 95.3 µM). Besides, the MBC in data set [2] came to 32 µg/mL (≈ 95.3 µM). Also, in the data set with S. aureus 007 (MARSA) (setting [4]), the MIC turned out to be 16 µg/mL (≈ 47.7 µM). For the same molecule, the MBC with S. aureus 007 (MARSA) (setting [5]) was 16 µg/mL (≈ 47.7 µM). Further, in the data set with S. aureus 05H (MARSA), the MIC was 8 µg/mL (≈ 23.8 µM) and the MBC worked out at 8 µg/mL (≈ 23.8 µM). In the data set on S. aureus 05H (MARSA) (setting [6]), the MIC turned out to be 8 µg/mL (≈ 23.8 µM).
As for `COc1ccc(C(=O)NN=Cc2ccc([N+](=O)[O-])o2)cc1` [Compound 4e, 4-Methoxy-N′-((5-nitrofuran-2-yl)methylene)benzohydrazide], the MBC stood at 16 µg/mL (≈ 55.3 µM) in data set [1], 16 µg/mL (≈ 55.3 µM) in data set [2], 8 µg/mL (≈ 27.7 µM) in the data set on S. aureus 007 (MARSA) (setting [5]) and 4 µg/mL (≈ 13.8 µM) in the data set with S. aureus 05H (MARSA). Further, the MIC was determined as 16 µg/mL (≈ 55.3 µM) in data set [1], 16 µg/mL (≈ 55.3 µM) in data set [2], 8 µg/mL (≈ 27.7 µM) in the data set with S. aureus 007 (MARSA) (setting [4]) and 4 µg/mL (≈ 13.8 µM) in the data set on S. aureus 05H (MARSA) (setting [6]).
`CC(=O)N1N=C(c2ccc(C)cc2)OC1c1ccc([N+](=O)[O-])o1` (stereo not drawn) [Compound 5b, 1-(2-(5-Nitrofuran-2-yl)-5-(methylphenyl)-1,3,4-oxadiazol-3(2H)-yl)ethanone] returned a melting point of 160 to 162 °C.
Turning to `O=C(NN=Cc1ccc([N+](=O)[O-])o1)c1ccccc1` [Compound 4a, N′-((5-nitrofuran-2-yl)methylene)benzohydrazide], the results for the MBC (in data set [1]; with S. aureus 007 (MARSA) (setting [5]); in the data set on S. aureus 05H (MARSA)) were 16 µg/mL (≈ 61.7 µM), 8 µg/mL (≈ 30.9 µM) and 8 µg/mL (≈ 30.9 µM), respectively. In addition, the MIC is 16 µg/mL (≈ 61.7 µM) in data set [1], 8 µg/mL (≈ 30.9 µM) with S. aureus 007 (MARSA) (setting [4]) and 8 µg/mL (≈ 30.9 µM) in the data set with S. aureus 05H (MARSA) (setting [6]).
`Cc1ccc(C(=O)NN=Cc2ccc([N+](=O)[O-])o2)cc1` [Compound 4b, 4-Methyl-N′-((5-nitrofuran-2-yl)methylene)benzohydrazide]: the values for the MBC (in data set [1]; in the data set on S. aureus 007 (MARSA) (setting [5]); with S. aureus 05H (MARSA)) were 32 µg/mL (≈ 117 µM), 8 µg/mL (≈ 29.3 µM) and 4 µg/mL (≈ 14.6 µM), respectively. Moreover, the MIC in data set [1] was 16 µg/mL (≈ 58.6 µM); with S. aureus 007 (MARSA) (setting [4]), 8 µg/mL (≈ 29.3 µM); in the data set on S. aureus 05H (MARSA) (setting [6]), 4 µg/mL (≈ 14.6 µM).
Take `CC(=O)N1N=C(c2ccccc2)OC1c1ccc([N+](=O)[O-])o1` (stereo not drawn) [Compound 5a, 1-(2-(5-Nitrofuran-2-yl)-5-phenyl-1,3,4-oxadiazol-3(2H)-yl)ethanone]: the melting point fell in the range of 178 to 180 °C. Also, the MIC in data set [2] turned out to be 16 µg/mL (≈ 53.1 µM). Besides, in data set [3], the MBC is 16 µg/mL (≈ 53.1 µM) and the MIC worked out at 16 µg/mL (≈ 53.1 µM). The MIC in the data set with S. aureus 007 (MARSA) (setting [4]) was found to be 32 µg/mL (≈ 106 µM). The MBC in the data set with S. aureus 007 (MARSA) (setting [5]) is 32 µg/mL (≈ 106 µM). Besides, the MBC with S. aureus 05H (MARSA) worked out at 16 µg/mL (≈ 53.1 µM). Besides, in the data set with S. aureus 05H (MARSA) (setting [6]), the MIC is 16 µg/mL (≈ 53.1 µM).
For `O=C(N[C@H](CO)[C@H](O)c1ccc([N+](=O)[O-])cc1)C(Cl)Cl` [Chloramphenicol, chloramphenicol, reference compound], the MBC in data set [1] worked out at 64 µg/mL (≈ 198 µM); in data set [2], 128 µg/mL (≈ 396 µM); in data set [3] it was 128 µg/mL (≈ 396 µM); in the data set with S. aureus 007 (MARSA), 128 µg/mL (≈ 396 µM); in the data set on S. aureus 05H (MARSA) it was 128 µg/mL (≈ 396 µM). For the same molecule, the MIC (in data set [1]; in data set [2]; in data set [3]; in the data set on S. aureus 007 (MARSA); with S. aureus 05H (MARSA); with S. aureus 05H (MARSA) (setting [6])) was 64 µg/mL (≈ 198 µM) throughout.
In the case of `O=C(NN=Cc1ccc([N+](=O)[O-])o1)c1ccc([N+](=O)[O-])cc1` [Compound 4c, 4-Nitro-N′-((5-nitrofuran-2-yl)methylene)benzohydrazide], the MBC in data set [1] stood at 32 µg/mL (≈ 105 µM); in data set [2], 32 µg/mL (≈ 105 µM); in the data set on S. aureus 007 (MARSA) (setting [5]), 16 µg/mL (≈ 52.6 µM); with S. aureus 05H (MARSA) it was 8 µg/mL (≈ 26.3 µM). Moreover, the MIC in data set [1] was determined as 32 µg/mL (≈ 105 µM); in data set [2], 16 µg/mL (≈ 52.6 µM); in data set [3] it was 16 µg/mL (≈ 52.6 µM); in the data set on S. aureus 007 (MARSA) (setting [4]), 8 µg/mL (≈ 26.3 µM); in the data set with S. aureus 05H (MARSA) (setting [6]), 8 µg/mL (≈ 26.3 µM).
Turning to `COc1ccc(C2=NN(C(C)=O)C(c3ccc([N+](=O)[O-])o3)O2)cc1` (stereo not drawn) [Compound 5e, 1-(2-(5-Nitrofuran-2-yl)-5-(methoxyphenyl)-1,3,4-oxadiazol-3(2H)-yl)ethanone], the melting point fell in the range of 181 to 183 °C.

For orientation: melting point means the temperature, or range, at which the solid turns liquid.

Values taken from PMC6268585, “Synthesis, Molecular Properties Prediction, and Anti-staphylococcal Activity of N-Acylhydrazones and New 1,3,4-Oxadiazole Derivatives” (Molecules, 2012).
